From article PMC5618657, “Osmolyte-Like Stabilizing Effects of Low GdnHCl Concentrations on D-Glucose/D-Galactose-Binding Protein” (International Journal of Molecular Sciences, 2017)
Read-outs that look alike come from different tables or passages of the source.

Key:
Set-up in all cases: species or system E. coli
wtGGBP = target: T1, wtGGBP (Escherichia coli, UniProt P0AEE5); experiment: Isothermal titration calorimetry of glucose binding (wild type); conditions: read-out: Kd (ITC)
T1 construct: polyhistidine (C); made in house; host or cells: E. coli BL21(DE3)
T1 sequence (P0AEE5 24-332 limits assumed): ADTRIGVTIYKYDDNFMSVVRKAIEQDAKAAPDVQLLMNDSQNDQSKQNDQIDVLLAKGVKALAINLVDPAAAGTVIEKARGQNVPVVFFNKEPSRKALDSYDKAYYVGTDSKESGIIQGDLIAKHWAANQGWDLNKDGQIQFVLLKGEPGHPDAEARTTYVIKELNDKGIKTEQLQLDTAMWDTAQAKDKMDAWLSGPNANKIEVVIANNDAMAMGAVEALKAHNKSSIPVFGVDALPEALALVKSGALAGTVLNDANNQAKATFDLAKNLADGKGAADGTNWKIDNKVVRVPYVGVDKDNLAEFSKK
Description: (§1) For this purpose, we used isothermal titration calorimetry (ITC) (Figure 7), since this approach allows for the determination of both the stoichiometric and thermodynamic binding parameters. The results of the ITC analysis generally corresponded to the data generated by the fluorescent-based analysis of the GGBP/H152C-BADAN interaction with glucose in solutions with sub-denaturing GdnHCl concentrations. […] The enthalpy contribution to the Gibbs free energy change caused by the interaction of studied proteins with glucose was principal in all solutions tested. This indicates the significant contribution of the hydrogen bonds between protein and glucose to the protein-ligand complex formation, [91] which is in excellent agreement with the X-ray structural data showing that the glucose binding to the GGBP active center is stabilized by 13 hydrogen bonds. […]
(§2) The parameters of the binding of mutant GGBP/H152C and wtGGBP with glucose in buffer, GdnHCl, and urea solutions were determined using the isothermal titration calorimeter TA Nano ITC (TA Instruments, New Castle, DE, USA) at the Resource Center of the Thermogravimetric and Calorimetric Research (Research Park of St. Petersburg State University). […]

GGBP/H152C-BADAN = target: T2, GGBP/H152C-BADAN (Escherichia coli, UniProt P0AEE5, H175C); experiment: Stopped-flow fluorescence kinetics of glucose binding; conditions: glucose 0.5 mM, protein 0.6 μM, 23 °C
T2 construct: polyhistidine (C); BADAN (fluorescent dye covalently linked to Cys152); made in house; host or cells: E. coli BL21(DE3)
T2 sequence (P0AEE5 24-332 H175C limits assumed): as the sequence (P0AEE5 24-332 limits assumed) above, with H152C counted along it
Description: The greater affinity of GGBP to glucose in the presence of low GdnHCl concentrations was also manifested by an increase in the binding rate of glucose to the protein in the presence of 0.1 M GdnHCl. It is known that, at high concentrations of one of the reactants, the reaction rate is predominately determined by the content of the substance with a low concentration (pseudo-first order conditions). Therefore, it can be expected that in solutions of high glucose concentration, the rate of the GGBP/H152C-glucose complex formation will be determined by the content of molecules with the semi-closed conformations in a protein ensemble. […]
It is expected that the decay curves should contain at least two rate constants characterizing the interconversion between the protein conformers in the absence of ligand and reflecting the glucose binding to GGBP/H152C [88]. […] Therefore, in practice, the recorded curves are approximated by monoexponential decay.
The kinetics of glucose binding to GGBP/H152C-BADAN in a timeframe from 0 to 0.04 s was measured using the MOS450spectrometerequipped with the stopped-flow mixing module SFM-4 (Bio-Logic, Seyssinet-Pariset, France). The excitation wavelength was 387 nm, the dye fluorescence signal was filtered by cut-off filter at 405 nm. […]

GGBP/H152C = target: T3, GGBP/H152C (Escherichia coli, UniProt P0AEE5, H175C); experiment: Isothermal titration calorimetry of glucose binding (mutant); conditions: Kd (ITC)
T3 construct: polyhistidine (C); made in house; host or cells: E. coli BL21(DE3)
T3 sequence (P0AEE5 24-332 H175C limits assumed): as the sequence (P0AEE5 24-332 limits assumed) above, with H152C counted along it
Description: as §1, §2

[1] = solution without denaturants (black)

SMILES: OC[C@H]1OC(O)[C@H](O)[C@@H](O)[C@@H]1O (stereo partly drawn) [glucose, D-Glucose]
- Kd (wtGGBP; 0.1 M GdnHCl (red)): 280 ± 60 nM
- Kd (wtGGBP; [1]): 310 nM
- k (rate of GGBP/H152C-glucose complex formation) (GGBP/H152C-BADAN; in 0.1 M GdnHCl): 508 s⁻¹
- k (rate of GGBP/H152C-glucose complex formation) (GGBP/H152C-BADAN; without denaturants): 465 s⁻¹
- Kd (GGBP/H152C; 0.1 M GdnHCl (red)): 2290 ± 80 nM
- Kd (GGBP/H152C; [1]): 3050 nM
